US5190921A, “Amino acids and peptides having a modified tyrosine residue, their preparation and their application as medicaments” (Institut National de la Sante et de la Recherche Medicale …, priority 1988, dated 1993)
*1 amine or outer side, *2 acyl side, *3 side chain or, on linkers, in order; H or OH if unused. Where a SMILES comes first, the peptide text is derived from it. [ ]: non-standard residue; d: D form. The star is where a group is joined. X1 = CCCC[C@@H](NC(=O)CC(=O)*)NC(=O)[C@H](Cc1ccc(CS(=O)(=O)O)cc1)NC(C)=O; Phe(4-CH2SO3H) = N[C@@H](Cc1ccc(CS(=O)(=O)O)cc1)C(=O)O; X2 = O=C([C@@H](Cc1ccc(CS(=O)(=O)O)cc1)N[*:1])[*:2]; sY = N[C@@H](Cc1ccc(OS(=O)(=O)O)cc1)C(=O)O; NMeNle = CCCC[C@H](NC)C(=O)O; Nle = CCCC[C@H](N)C(=O)O; Boc = CC(C)(C)OC(=O)*

Tests used:
[1] = target: guinea pig pancreatic acini; test: Pancreatic amylase liberation test; format: cell-based; settings: acini incubated 30 minutes at 37° C.; mean of three experiments in triplicate; read-out: Amylase secretion from guinea pig pancreatic acini, Agonist activity EC50
Experimental: Amylase secretion is measured after incubation of pancreatic acini for 30 minutes at 37° C. in the presence of the products under study, according to the experimental protocol described by Peikin et al., Am. J. Physiol., 235 (6), E 743-E 749, (1978). Amylase activity is determined using Phadebas reagent (Pharmacia), according to the method described by Ceska et al., Experientia, 25, 555 (1969). The values indicated in this table represent the mean of three separate experiments, each carried out in triplicate.

guinea pig ileum = test: Contraction-producing activity on guinea pig ileum; settings: isolated ileum strips, Tyrode's solution, 37° C.; mean ± s.e.m. of three experiments; read-out: Contraction-producing activity on guinea pig ileum, Agonist activity EC50
Experimental: This test is carried out according to the method described by Hutchinson et al., Eur. J. Pharmacol., 69, 87 (1981). Strips from the terminal portion of the guinea pig ileum are rapidly sampled and fixed in the tank of an isometric gauge containing 25 cm^3 of Tyrode's solution. The solution is maintained at 37° C. while passing through it, bubble by bubble, a gas composed of 95% oxygen and 5% CO2. The compounds under study are tested in the conditions described by Ruiz-Gayo et al., Peptides, 6, 415, (1985).
The values indicated in this table represent the mean (± s.e.m.) of three separate experiments.

[2] = Enzymatic stability in crude rat brain membranes; format: in vitro ADME; settings: enzymatic degradation in crude rat brain membranes; read-out: 1/2 life time
Experimental: The resistance of these analogs to enzymatic degradation was tested in crude rat brain membranes which contain at the same time aminopeptidasic, thiolproteasic and encephalinasic activity [Matsas et al. Febs. Lett. 175, 124 (1984); McDermott et al. Neurochem. Int. 5, 641 (1983)]. These compounds were tested according to the protocol previously described by Durieux et al. Neuropeptides 7, 1, (1986).

Row | Compound | EC50 [1] [nM] | EC50 (guinea pig ileum) [nM] | half-life [2] [h]
1 | CCCC[C@@H](NC(=O)CC(=O)N[C@@H](Cc1c[nH]c2ccccc12)C(=O)N(C)[C@@H](CCCC)C(=O)N[C@@H](CC(=O)O)C(=O)N[C@@H](Cc1ccccc1)C(N)=O)NC(=O)[C@H](Cc1ccc(CS(=O)(=O)O)cc1)NC(C)=O [Example 18, Ac-L-Phe(p-CH2 SO3 Na)-gNle-mGly-Trp-(N-Me)Nle-Asp-Phe-NH2] (X1-W[NMeNle]DF-NH2) | 642 | > 1000 | > 4.17
2 | CCCC[C@@H](NC(=O)CC(=O)N[C@@H](Cc1c[nH]c2ccccc12)C(=O)N(C)[C@@H](CCCC)C(=O)N[C@@H](CC(=O)O)C(=O)N[C@@H](Cc1ccccc1)C(N)=O)NC(=O)[C@H](Cc1ccc(OS(=O)(=O)O)cc1)NC(=O)OC(C)(C)C [Example 15, Boc-Tyr(SO3 Na)-gNle-mGly-Trp-(N-Me)Nle-Asp(Na)-Phe-NH2] | 0.35 | 1 | > 3
3 | CCCC[C@H](NC(=O)[C@H](Cc1c[nH]c2ccccc12)NC(=O)CNC(=O)[C@H](CCCC)NC(=O)[C@@H](Cc1ccc(CS(=O)(=O)O)cc1)NC(C)=O)C(=O)N[C@@H](CC(=O)O)C(=O)N[C@@H](Cc1ccccc1)C(N)=O [Example 14, Ac-D-Phe(p-CH2 SO3 Na)-NLe-Gly-Trp-NLe-Asp-PheNH2] (Ac-[X2][Nle]GW[Nle]DF-NH2) | 1.6 | 18 | –
4 | CCCC[C@H](NC(=O)[C@H](Cc1ccc(CS(=O)(=O)O)cc1)NC(C)=O)C(=O)NCC(=O)N[C@@H](Cc1c[nH]c2ccccc12)C(=O)N[C@@H](CCCC)C(=O)N[C@@H](CC(=O)O)C(=O)N[C@@H](Cc1ccccc1)C(N)=O [Example 13, Ac-L-Phe(p-CH2 SO3 Na)-NLe-Gly-Trp-NLe-Asp-PheNH2] (Ac-[Phe(4-CH2SO3H)][Nle]GW[Nle]DF-NH2) | 0.33 | 3.8 | –
5 | CCCC[C@H](NC(=O)[C@H](Cc1ccc(OS(=O)(=O)O)cc1)NC(=O)OC(C)(C)C)C(=O)NCC(=O)N[C@@H](Cc1c[nH]c2ccccc12)C(=O)N(C)[C@@H](CCCC)C(=O)N[C@@H](CC(=O)O)C(=O)N[C@@H](Cc1ccccc1)C(N)=O [Example 16, Boc-Tyr(SO3 Na)-Nle-Gly-Trp-(N-Me)Nle-Asp(Na)-Phe-NH2] (Boc-[sY][Nle]GW[NMeNle]DF-NH2) | 377 | > 1000 | > 4.17
6 | CSCC[C@H](NC(=O)[C@H](Cc1ccc(OS(=O)(=O)O)cc1)NC(=O)[C@@H](N)CC(=O)O)C(=O)NCC(=O)N[C@@H](Cc1c[nH]c2ccccc12)C(=O)N[C@@H](CCSC)C(=O)N[C@@H](CC(=O)O)C(=O)N[C@@H](Cc1ccccc1)C(N)=O [CCK8, Asp-Tyr(SO3 H)-Met-Gly-Trp-Met-Asp-Phe-NH2, reference compound] | – | – | 0.75
